Measured values taken from ChEMBL document CHEMBL5331046, “Disulfiram and dithiocarbamate analogues demonstrate promising antischistosomal effects” (Eur J Med Chem, 2022).
Activity calls are given as the source filed them. The rule behind the calls is not given here.

Experiments:
Schistosoma mansoni [1] = test: Antischistosomal activity against Schistosoma mansoni couples assessed as decrease in parasite motility at 100 uM measured upto 72 hrs by bright field microscopy; type: functional; design: scale not given: the % may be the effect or the level left
HepG2 [2] = test: Cytotoxicity against human HepG2 cells assessed as reduction in cell vaibility at 50 uM by WST-1 assay; type: toxicity, cell-based; conditions: hepg2, 50 µM
Schistosoma mansoni [3] = test: Antischistosomal activity against Schistosoma mansoni couples assessed as tegument damage at 100 uM measured upto 72 hrs by bright field microscopy; type: functional, organism-based
LS174T [4] = test: Cytotoxicity against human LS174T cells assessed as reduction in cell vaibility at 50 uM by WST-1 assay; type: toxicity, cell-based
Schistosoma mansoni [5] = test: Antischistosomal activity against Schistosoma mansoni couples assessed as decrease in parasite motility at 50 uM measured upto 72 hrs by bright field microscopy; type: functional; design: scale not given: the % may be the effect or the level left
Schistosoma mansoni [6] = test: Antischistosomal activity against Schistosoma mansoni couples assessed as gut dilations at 100 uM measured upto 72 hrs by bright field microscopy; type: functional, organism-based
Schistosoma mansoni [7] = test: Antischistosomal activity against Schistosoma mansoni couples assessed as detachment of worms from culture dish at 100 uM measured upto 72 hrs by bright field microscopy; type: functional, organism-based
LS174T [8] = test: Cytotoxicity against human LS174T cells assessed as reduction in cell vaibility upto 100 uM by WST-1 assay; type: toxicity, cell-based
Schistosoma mansoni [9] = test: Antischistosomal activity against Schistosoma mansoni couples assessed as pairing instability at 50 uM measured upto 72 hrs by bright field microscopy; type: functional
HepG2 [10] = test: Cytotoxicity against human HepG2 cells assessed as reduction in cell viability upto 100 uM by WST-1 assay; type: toxicity, cell-based; conditions: hepg2, 100 µM
Schistosoma mansoni [11] = test: Antischistosomal activity against Schistosoma mansoni couples assessed as tegument damage upto 100 uM measured upto 72 hrs by bright field microscopy; type: functional, organism-based
HepG2 [12] = test: Cytotoxicity against human HepG2 cells assessed as reduction in cell vaibility at 100 uM by WST-1 assay; type: toxicity, cell-based; conditions: hepg2, 100 µM
Schistosoma mansoni [13] = test: Antischistosomal activity against Schistosoma mansoni couples assessed as edematous swelling of gut at 25 uM measured upto 72 hrs by bright field microscopy; type: functional, organism-based
Schistosoma mansoni [14] = test: Antischistosomal activity against Schistosoma mansoni couples at 100 uM measured upto 72 hrs by bright field microscopy; type: functional, organism-based
Schistosoma mansoni [15] = test: Antischistosomal activity against Schistosoma mansoni couples assessed as decrease in parasite motility at 25 uM measured upto 72 hrs by bright field microscopy; type: functional; design: scale not given: the % may be the effect or the level left
Schistosoma mansoni [16] = test: Antischistosomal activity against Schistosoma mansoni couples assessed as inhibition of eggs production at 10 uM measured upto 72 hrs by bright field microscopy; type: functional, organism-based
Schistosoma mansoni [17] = test: Antischistosomal activity against Schistosoma mansoni couples assessed as inhibition of eggs production at 5 uM measured upto 72 hrs by bright field microscopy; type: functional; design: scale not given: the % may be the effect or the level left
Schistosoma mansoni [18] = test: Antischistosomal activity against Schistosoma mansoni couples assessed as reduction in pairing stability at 10 uM measured upto 72 hrs by bright field microscopy; type: functional, organism-based
LS174T [19] = test: Cytotoxicity against human LS174T cells assessed as reduction in cell viability at 100 uM by WST-1 assay; type: toxicity, cell-based
HepG2 [20] = test: Cytotoxicity against human HepG2 cells assessed as reduction in cell vaibility at 25 uM by WST-1 assay; type: toxicity, cell-based; conditions: hepg2, 25 µM
Schistosoma mansoni [21] = test: Antischistosomal activity against Schistosoma mansoni couples assessed as decrease in parasite motility at 10 uM measured upto 72 hrs by bright field microscopy; type: functional, organism-based
Schistosoma mansoni [22] = test: Antischistosomal activity against Schistosoma mansoni couples assessed as dead worms at 25 uM measured upto 72 hrs by bright field microscopy; type: functional
Schistosoma mansoni [23] = test: Antischistosomal activity against Schistosoma mansoni couples assessed as decrease in pairing stability at 5 uM measured upto 72 hrs by bright field microscopy; type: functional; design: scale not given: the % may be the effect or the level left
LS174T [24] = test: Cytotoxicity against human LS174T cells assessed as reduction in cell vaibility at 25 uM by WST-1 assay; type: toxicity, cell-based
Schistosoma mansoni [25] = test: Antischistosomal activity against Schistosoma mansoni couples assessed as decrease in parasite vitality at 10 uM measured upto 72 hrs by bright field microscopy; type: functional
Schistosoma mansoni [26] = test: Antischistosomal activity against Schistosoma mansoni couples assessed as reduction in pairing stability at 50 uM measured upto 72 hrs by bright field microscopy; type: functional, organism-based
Schistosoma mansoni [27] = test: Antischistosomal activity against Schistosoma mansoni couples assessed as inhibition of eggs production at 50 uM measured upto 72 hrs by bright field microscopy; type: functional, organism-based
Schistosoma mansoni [28] = test: Antischistosomal activity against Schistosoma mansoni couples assessed as induction of weak phenotypes at 25 uM measured upto 72 hrs by bright field microscopy; type: functional, organism-based
LS174T [29] = test: Cytotoxicity against human LS174T cells assessed as reduction in cell vaibility upto 50 uM by WST-1 assay; type: toxicity, cell-based
Schistosoma mansoni [30] = test: Antischistosomal activity against Schistosoma mansoni couples assessed as gut dilations at 50 uM measured upto 72 hrs by bright field microscopy; type: functional, organism-based
Schistosoma mansoni [31] = test: Antischistosomal activity against Schistosoma mansoni couples assessed as tegument damage at 50 uM measured upto 72 hrs by bright field microscopy; type: functional, organism-based
HepG2 [32] = test: Cytotoxicity against human HepG2 cells assessed as reduction in cell viability upto 50 uM by WST-1 assay; type: toxicity, cell-based; conditions: hepg2, 50 µM
Schistosoma mansoni [33] = test: Antischistosomal activity against Schistosoma mansoni couples assessed as intestinal dilations and tegument damage at 50 uM measured upto 72 hrs by bright field microscopy; type: functional, organism-based
Schistosoma mansoni [34] = test: Antischistosomal activity against Schistosoma mansoni couples assessed as eggs deformation at 100 uM measured upto 72 hrs by bright field microscopy; type: functional
Schistosoma mansoni [35] = test: Antischistosomal activity against Schistosoma mansoni couples assessed as reduction in pairing stability at 100 uM measured upto 72 hrs by bright field microscopy; type: functional
Schistosoma mansoni [36] = test: Antischistosomal activity against Schistosoma mansoni couples assessed as tegument damage at <=50 uM measured upto 72 hrs by bright field microscopy; type: functional, organism-based
Schistosoma mansoni [37] = test: Antischistosomal activity against Schistosoma mansoni couples assessed as reduction in parasite motility at <=50 uM measured upto 72 hrs by bright field microscopy; type: functional, organism-based
Schistosoma mansoni [38] = test: Antischistosomal activity against Schistosoma mansoni couples at 10 uM measured upto 72 hrs by bright field microscopy; type: functional, organism-based
Schistosoma mansoni [39] = test: Antischistosomal activity against Schistosoma mansoni couples at 25 uM measured upto 72 hrs by bright field microscopy; type: functional, organism-based
Schistosoma mansoni [40] = test: Antischistosomal activity against Schistosoma mansoni couples assessed as inhibition of eggs production at 100 uM measured upto 72 hrs by bright field microscopy; type: functional; design: scale not given: the % may be the effect or the level left

What does the source list for `Cl.S=C(SCc1ccccc1)N1CCNCC1`?
Activity (Schistosoma mansoni [1]): >=55%; Activity (HepG2 [2]): Toxic; Activity (Schistosoma mansoni [3]): Active; Activity (LS174T [4]): Toxic; Activity (Schistosoma mansoni [5]): ~35%; Activity (Schistosoma mansoni [6]): Active

For `S=C(SCc1ccccc1)N1CCSC1`, which Activity (Schistosoma mansoni [7]) is on record?
Its Activity is “Active”.

Which results are given for `CCN(CC)C(=S)SCCC1SCCS1`?
Activity (Schistosoma mansoni [1]): >60%; Activity (LS174T [8]): Non-Toxic; Activity (Schistosoma mansoni [9]): >90%; Activity (HepG2 [10]): Non-Toxic; Activity (Schistosoma mansoni [11]): Active

For `Cl.O=C([C@@H]1CCCN1)N1CCN(C(=S)SCc2ccc([N+](=O)[O-])cc2)CC1`, which Activity (HepG2 [12]) is on record?
The Activity was “Toxic”.

And the Activity (Schistosoma mansoni [13])?
The Activity was “Active”.

What about the Activity (Schistosoma mansoni [14]) of the same compound?
Its Activity is “Active”.

What about the Activity (Schistosoma mansoni [15]) of the same compound?
The Activity was 65%.

And the Activity (Schistosoma mansoni [16])?
The Activity was “Active”.

And the Activity (Schistosoma mansoni [17])?
Its Activity is ~80%.

And the Activity (Schistosoma mansoni [18])?
Its Activity is “Active”.

And the Activity (LS174T [19])?
Its Activity is “Toxic”.

And the Activity (HepG2 [20])?
The Activity was “Toxic”.

And the Activity (Schistosoma mansoni [21])?
The Activity was “inactive”.

What about the Activity (Schistosoma mansoni [22]) of the same compound?
Its Activity is “<=25%”.

What about the Activity (Schistosoma mansoni [23]) of the same compound?
Its Activity is ~80%.

What about the Activity (LS174T [24]) of the same compound?
Its Activity is “Toxic”.

What about the Activity (Schistosoma mansoni [25]) of the same compound?
The Activity was “Active”.

What does the source list for `CCN(CC)C(=S)SCc1ccc2ccccc2c1`?
Activity (HepG2 [12]): Non-Toxic; Activity (Schistosoma mansoni [26]): Active; Activity (Schistosoma mansoni [27]): Active; Activity (LS174T [19]): Non-Toxic; Activity (Schistosoma mansoni [5]): >50%

Which results are given for `Cl.N[C@@H](CO)C(=O)N1CCN(C(=S)SCc2ccc([N+](=O)[O-])cc2)CC1`?
Activity (Schistosoma mansoni [15]): 30%; Activity (Schistosoma mansoni [28]): Active

`Cl.N[C@@H](Cc1ccc(O)cc1)C(=O)N1CCN(C(=S)SCc2ccc([N+](=O)[O-])cc2)CC1` was tested. Which Activity (Schistosoma mansoni [15]) did it give?
Its Activity is 30%.

And the Activity (Schistosoma mansoni [28])?
Its Activity is “Active”.

What does the source list for `CCN(CC)C(=S)SCc1ccc(SC)cc1`?
Activity (Schistosoma mansoni [26]): Active; Activity (LS174T [29]): Non-Toxic; Activity (Schistosoma mansoni [30]): Active; Activity (Schistosoma mansoni [27]): Active; Activity (Schistosoma mansoni [31]): Active; Activity (HepG2 [32]): Non-Toxic; Activity (Schistosoma mansoni [33]): Active

What does the source list for `CCCN(CCC)C(=S)SCc1ccccc1`?
Activity (Schistosoma mansoni [34]): Active; Activity (Schistosoma mansoni [1]): ~40%; Activity (Schistosoma mansoni [35]): Active; Activity (Schistosoma mansoni [36]): inactive; Activity (Schistosoma mansoni [3]): Active; Activity (Schistosoma mansoni [37]): inactive

What does the source list for `CCN(CC)C(=S)SCCc1c[nH]c2ccccc12`?
Activity (Schistosoma mansoni [1]): inactive; Activity (Schistosoma mansoni [6]): Active

What does the source list for `O=[N+]([O-])c1ccc(CSC(=S)N2CCN(CCO)CC2)cc1`?
Activity (Schistosoma mansoni [14]): Active; Activity (Schistosoma mansoni [38]): inactive; Activity (Schistosoma mansoni [39]): Active

`CCN(CC)C(=S)SCc1ccccc1` was tested. Which Activity (Schistosoma mansoni [40]) did it give?
Its Activity is 100%.

And the Activity (Schistosoma mansoni [15])?
The Activity was 30%.

And the Activity (Schistosoma mansoni [1])?
The Activity was 50%.

And the Activity (Schistosoma mansoni [35])?
Its Activity is 100%.

What about the Activity (HepG2 [2]) of the same compound?
The Activity was “Toxic”.

And the Activity (LS174T [4])?
The Activity was “Toxic”.
